According to US20200308222A1, “ANTIMICROBIAL TETRAPEPTIDES” (DSM IP ASSETS B.V., priority 2017, published 2020):
Non-standard residues stand in square brackets, D forms with d. Residues, ends and D or L forms follow the SMILES beside them. *: point of attachment. 2Nal = N[C@@H](Cc1ccc2ccccc2c1)C(=O)O; d2Nal = N[C@H](Cc1ccc2ccccc2c1)C(=O)O; Butanoyl(4-Ph) = O=C(CCCc1ccccc1)*; Dab = NCC[C@H](N)C(=O)O

How the values were obtained:
Assay in all cases: Minimum inhibitory concentration (MIC), liquid media method in 96-well plates
S. aureus (ATCC 6538) = type: cell-based, Staphylococcus aureus; conditions: about 7×10^5 cfu/ml per well; incubated 48 hours at 32,5° C.; turbidity read-out
Method: (§1) The peptides are dissolved in culture medium at 400 ppm. A control in the microbiological medium alone and a control consisting of Phenonip® prepared to 5% (v/v) directly in the microbiological medium was used. The determination of minimal inhibitory concentration of each product is performed according to a liquid media method adapted in 96-wells plates. To determine the minimum inhibitory concentration (MIC), the peptides are tested in serial dilutions (½ to ½ for 8 dilutions) directly in the liquid culture medium to favor the growth of bacteria in microplate 96 wells. Then, each point of dilution is contaminated with each strain at about 7×10^5 cfu/ml for S. aureus (ATCC 6538), 5.5×10^5 cfu/ml for P. acnes (ATCC 11827) and 1,2×10^5 cfu/ml for B. subtilis (ATCC 6633) per well. Finally, plates are incubated 48 hours at 32, 5° C.±2.5° C., taking care to respect the respiratory type of each strain. […] The last dilution corresponding to the absence of bacterial growth is taken as minimum inhibitory concentration (MIC) for the microbial strain considered.

B. subtilis (ATCC 6633) = type: cell-based, Bacillus subtilis; conditions: 1,2×10^5 cfu/ml per well; incubated 48 hours at 32,5° C.; turbidity read-out
Method: as §1

P. acnes (ATCC 11827) = type: cell-based, Propionibacterium acnes; conditions: 5.5×10^5 cfu/ml per well; incubated 48 hours at 32,5° C.; turbidity read-out
Method: as §1

Row | Structure (SMILES) | MIC values S. aureus (S. aureus (ATCC 6538)) [ppm] | MIC values B. subtilis (B. subtilis (ATCC 6633)) [ppm] | MIC values P. acnes (P. acnes (ATCC 11827)) [ppm]
1 | CCCCCCCCNC(=O)[C@H](Cc1c[nH]c2ccccc12)NC(=O)[C@H](CCCNC(=N)N)NC(=O)[C@@H](Cc1ccccc1)NC(=O)[C@H](Cc1c[nH]cn1)NC(=O)CCCc1ccccc1 [I-g, PhBu-His-D-Phe-Arg-Trp-NH-Octyl *2TFA] | 200 | 252 | 
2 | CCCN(CCC)C(=O)[C@H](Cc1c[nH]c2ccccc12)NC(=O)[C@H](CCCNC(=N)N)NC(=O)[C@@H](Cc1ccccc1)NC(=O)[C@H](Cc1c[nH]cn1)NC(=O)CCCc1ccccc1 [I-d, PhBu-His-D-Phe-Arg-Trp-N(Propyl)2 *2TFA] | 31.3 | 15.6 | 125
3 | N=C(N)NCCC[C@H](NC(=O)[C@@H](Cc1ccccc1)NC(=O)[C@H](Cc1c[nH]cn1)NC(=O)CCCc1ccccc1)C(=O)N[C@H](Cc1ccc2ccccc2c1)C(N)=O [I-b, PhBu-His-D-Phe-Arg-D-2NaphAla-NH2 *2TFA] ({Butanoyl(4-Ph)}-H[dF]R[d2Nal]-NH2) |  | 100 | 400
4 | N=C(N)NCCC[C@H](NC(=O)[C@@H](Cc1ccccc1)NC(=O)[C@H](Cc1c[nH]cn1)NC(=O)CCCc1ccccc1)C(=O)N[C@@H](Cc1ccc2ccccc2c1)C(N)=O [I-a, PhBu-His-D-Phe-Arg-L-2NaphAla-NH2 *2TFA] ({Butanoyl(4-Ph)}-H[dF]R[2Nal]-NH2) | 125 | 62.5 | 500
5 | COc1ccc(CCCC(=O)N[C@@H](Cc2c[nH]cn2)C(=O)N[C@H](Cc2ccccc2)C(=O)N[C@@H](CCCNC(=N)N)C(=O)N[C@@H](Cc2c[nH]c3ccccc23)C(N)=O)cc1 [I-c, 4-MeO—PhBu-His-D-Phe-Arg-Trp-NH2 × 2 AcOH] |  | 200 | 
6 | N=C(N)NCCC[C@H](NC(=O)[C@@H](Cc1ccccc1)NC(=O)[C@H](Cc1c[nH]cn1)NC(=O)CCCc1ccccc1)C(=O)N[C@@H](Cc1c[nH]c2ccccc12)C(=O)NCC(O)CO (stereo partly drawn) [I-h, PhBu-His-D-Phe-Arg-Trp-NH—CH2—CH(OH)—CH2OH *2TFA] |  | 317 | 
7 | N=C(N)NCCC[C@H](NC(=O)[C@@H](Cc1ccccc1)NC(=O)[C@H](Cc1c[nH]cn1)NC(=O)CCCc1ccccc1)C(=O)N[C@@H](Cc1c[nH]c2ccccc12)C(=O)NCc1ccccc1 [I-f, PhBu-His-D-Phe-Arg-Trp-NH-Bn *2TFA] | 400 | 252 | 
8 | NCC[C@H](NC(=O)[C@@H](Cc1ccccc1)NC(=O)[C@H](Cc1c[nH]cn1)NC(=O)CCCc1ccccc1)C(=O)N[C@@H](Cc1c[nH]c2ccccc12)C(N)=O [I-e, PhBu-His-D-Phe-Dab-Trp-NH2 *2TFA] ({Butanoyl(4-Ph)}-H[dF][Dab]W-NH2) |  | 400 | 
